For one molecule, microvessel perfusion and stromal formation results are on record in patent US20220062418A1, “TUMOR TARGETING VITAMIN B12 DERIVATIVES FOR X-RAY ACTIVATED CHEMOTHERAPY” (THE TRUSTEES OF DARTMOUTH COLLEGE, priority 2018, published 2022).

This assay concerns tumor stroma. As to the kind of experiment: Losartan effect on stroma and perfusion in two tumor models. It counts as in vivo. The conditions noted are these: preliminary data. From the text:
In an alternative embodiment, we add transcobalamin II to enhance uptake of cobalamin derivatives into tissue. […] Drug delivery is thought to be impeded by the dense stroma of pancreatic adenocarcinoma, and so delivery of cobalamin conjugates could be limited by this issue. […] In an alternative embodiment we treat with Losartan for 10 days prior to cobalamin-drug conjugate treatment to enhance the delivery of this platform to the PDAC tumor stroma.

For the molecule `CCCCc1nc(Cl)c(CO)n1Cc1ccc(-c2ccccc2-c2nn[nH]n2)cc1` [Losartan], the microvessel perfusion result is “increases in microvessel perfusion” and the stromal formation result is on record as “reduce stromal formation”.
